Data taken from PubChem BioAssay AID1963441 (Molecular Pharmacology Branch, DTP, NCI, 2024).

System: NCI-H1876 complex spheroid growth, % test/control
Test: Anticancer human tumor NCI-H1876 cell line growth inhibition [Asc];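 note: compound exposure lasted 7 days starting three days after seeding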;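 for viability, T/C: 100% = DMSO vehicle control wells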
Details: for IC50: curve of first compound; for viability, T/C: stronger effect = lower value
Description: Multicellular complex tumor spheroid response to apoptosis pathway targeting inhibitors Alrizomadlin, Pelcitoclax, and Dasminapant in combination with a variety of drugs and investigational agents in selected tumor cell lines
The MDM2 inhibitor alrizomadlin, the Bcl-2/Bcl-xL inhibitor pelcitoclax, and the IAPs inhibitor dasminapant were evaluated both individually and in combination with standard of care and investigational anticancer small molecules within a complex spheroid model of solid tumors. . Complex spheroids include a stromal component modeled by human endothelial cells (HUVEC) and fibroblasts modeled by human mesenchymal stem cells (MSCs). The concentration ranges selected for each drug and investigational agent were based upon clinically achievable concentrations if the clinical Cmax of the agent was known.
Compounds. The drugs and investigational agents: alrizomadlin (APG-115; NSC831270), pelcitoclax (APG-1252; NSC835773), dasminapant (APG-1387;NSC834197), TAK-243 (NSC785004), copanlisib (NSC809693), olaparib (NSC753686), talazoparib (NSC767125), cobimetinib (NSC 768068), eltanexor (KPT-8602, NSC 794443), abemaciclib (NSC 768073), sotorasib (NSC818433), adagrasib (NSC 831453), MRTX-1133 (NSC 836407), Iadademestat (ORY1001, NSC 806812), and RMC-4630 (NSC839698), were obtained from the NCI Developmental Therapeutics Program Chemical Repository. The FDA-approved anticancer drug set is available from the Developmental Therapeutics Program at https://dtp.cancer.gov/organization/dscb/obtaining/available plates.htm. […] The stock solutions were prepared in dimethyl sulfoxide (DMSO, Sigma-Aldrich, St. Louis, MO, cat. D2650) at 800-fold the tested concentration and stored at -70 degrees C prior to their use. All drugs and investigational agents were tested over a range starting from a high concentration at or near the clinical Cmax and decreasing in half-log increments. If the clinical Cmax for an agent had not been determined, the highest concentration tested was 10 microM.
The patient-derived cancer (PDC) cell lines include five colon adenocarcinomas: 186277-243-T-J2-PDC, 616215-338-R-J1-PDC, 439559-082-T-J2-PDC, 463943-066-T-J2-PDC, and 519858-162-T-J1-PDC; three pancreatic carcinomas: 323965-272-R-J2-PDC, 521955-158-R6-J3-PDC, and 521955-158-R2-J5-PDC; two uterine sarcomas: 327498-152-R-J2-PDC and 993429-296-R-J1-PDC; two rhabdomyosarcomas: 755483-174-R-J1-PDC and 772245-204-R-J1-PDC; two soft tissue sarcomas: 126254-015-R-J1-PDC and 494315-158-R-J1-PDC; two malignant fibrous histiocytomas: 317291-083-R-J1-PDC and 596521-263-R-J1-PDC; two breast carcinomas: 171881-019-R-J1-PDC and 885512-296-R-J2-PDC; and one ovarian carcinoma: 6556581-035-R-J-PDC were obtained from the NCI PDMR, (https://pdmr.cancer.gov). The established cell lines HSSY-2 synovial sarcoma (RRID:CVCL 8719), SYO-1 synovial sarcoma (RRID:CVCL_7146), MPNST malignant peripheral neural sheath tumor were obtained from the Sloan Kettering Institute. The following established cell lines were purchased from the American Type Culture Collection (ATCC, Manassas, VA), Sor the received from the NCI repository:, PANC-1 pancreatic carcinoma (CRL-1469, RRID:CVCL_0480), OVCAR-5 ovarian carcinoma (RRID:CVCL_1628), OVCAR-8 ovarian carcinoma (RRID:CVCL_1629), , MCF-7 breast carcinoma (CRL-12584, RRID:CVCL_0031), MDA-MB-231 breast carcinoma (CRL-12532, RRID:CVCL_0062), NCI-H1876 small cell lung carcinoma (CRL-5902, RRID:CVCL_1503), NCI-H510A small cell lung carcinoma (HTB-184, RRID:CVCL_1565), NCI-H1417 (CRL-5869, RRID:CVCL_1469), and NCI-H196 small cell lung carcinoma (CRL-5823, RRID:CVCL_1509). Dr. Peter Houghton (Greehey Children's Cancer Research Institute, University of Texas Health Science Center, San Antonio, TX) provided Rh-18 rhabdomyosarcoma (RRID:CVCL_1659). Pooled donor human umbilical vein endothelial cells (HUVEC, Lonza, cat. CC-2519) and human mesenchymal stem cells (hMSC, Lonza, cat. PT-2501) were purchased from Lonza (Walkersville, MD).
Cell Culture. […]

IC50 (second compound 0.0316 µM): > 10 µM
IC50 (second compound 0.1 µM): > 10 µM
IC50 (second compound 0.316 µM): > 10 µM
IC50 (second compound 1 µM): > 10 µM
IC50 (second compound 3.16 µM): > 10 µM
IC50 (second compound 10 µM): > 10 µM
SMILES: C=CC(=O)N1CCN(c2nc(=O)n(-c3c(C)ccnc3C(C)C)c3nc(-c4c(O)cccc4F)c(F)cc23)C(C)C1 (configuration not stated) + Cc1c(S(C)(=O)=O)c(-c2cc(F)cc(N3CCN(c4ccc(NS(=O)(=O)c5ccc(NC(CCN6CCC(C(=O)OCCCP(=O)(O)O)CC6)CSc6ccccc6)c(S(=O)(=O)C(F)(F)F)c5)cc4)CC3)c2)c(-c2ccc(Cl)cc2)n1C(C)C
viability, T/C (second compound 0.0316 µM, first compound 0.0316 µM): 91%
viability, T/C (second compound 0.0316 µM, first compound 0.1 µM): 89.5%
viability, T/C (second compound 0.0316 µM, first compound 0.316 µM): 107%
viability, T/C (second compound 0.0316 µM, first compound 1 µM): 95.2%
viability, T/C (second compound 0.0316 µM, first compound 3.16 µM): 103%
viability, T/C (second compound 0.0316 µM, first compound 10 µM): 109%
viability, T/C (second compound 0.1 µM, first compound 0.0316 µM): 85.7%
viability, T/C (second compound 0.1 µM, first compound 0.1 µM): 99.6%
viability, T/C (second compound 0.1 µM, first compound 0.316 µM): 101%
viability, T/C (second compound 0.1 µM, first compound 1 µM): 106%
viability, T/C (second compound 0.1 µM, first compound 3.16 µM): 108%
viability, T/C (second compound 0.1 µM, first compound 10 µM): 107%
viability, T/C (second compound 0.316 µM, first compound 0.0316 µM): 91.1%
viability, T/C (second compound 0.316 µM, first compound 0.1 µM): 114%
viability, T/C (second compound 0.316 µM, first compound 0.316 µM): 97.6%
viability, T/C (second compound 0.316 µM, first compound 1 µM): 103%
viability, T/C (second compound 0.316 µM, first compound 3.16 µM): 109%
viability, T/C (second compound 0.316 µM, first compound 10 µM): 104%
viability, T/C (second compound 1 µM, first compound 0.0316 µM): 105%
viability, T/C (second compound 1 µM, first compound 0.1 µM): 99.4%
viability, T/C (second compound 1 µM, first compound 0.316 µM): 111%
viability, T/C (second compound 1 µM, first compound 1 µM): 98.6%
viability, T/C (second compound 1 µM, first compound 3.16 µM): 110%
viability, T/C (second compound 1 µM, first compound 10 µM): 114%
viability, T/C (second compound 3.16 µM, first compound 0.0316 µM): 96.4%
viability, T/C (second compound 3.16 µM, first compound 0.1 µM): 95.3%
viability, T/C (second compound 3.16 µM, first compound 0.316 µM): 102%
viability, T/C (second compound 3.16 µM, first compound 1 µM): 97.8%
viability, T/C (second compound 3.16 µM, first compound 3.16 µM): 114%
viability, T/C (second compound 3.16 µM, first compound 10 µM): 96.7%
viability, T/C (second compound 10 µM, first compound 0.0316 µM): 99.2%
viability, T/C (second compound 10 µM, first compound 0.1 µM): 96.5%
viability, T/C (second compound 10 µM, first compound 0.316 µM): 99.6%
viability, T/C (second compound 10 µM, first compound 1 µM): 116%
viability, T/C (second compound 10 µM, first compound 3.16 µM): 106%
viability, T/C (second compound 10 µM, first compound 10 µM): 95.1%
